According to patent publication US9394282B2, “Pyrazole carboxamides as Janus kinase inhibitors” (Merck Sharp & Dohme Corp., priority 2011, dated 2016):

Columns and labels:
[1] = biological target: JAK1 (Homo sapiens (Human), UniProt P23458); experiment: Jak biochemical HTRF assay, JAK1; details: recombinant purified GST-tagged catalytic domain; HTRF format; [ATP] 31.8 μM
Description: (§1) Jak Biochemical HTRF Assay Protocol
(§2) Subsequent reagent additions employed an Agilent Bravo.

[2] = biological target: JAK2 (Homo sapiens (Human), UniProt O60674); experiment: Jak biochemical HTRF assay, JAK2; details: recombinant purified GST-tagged catalytic domain, HTRF format
Sequence of JAK2 (O60674 849-1124): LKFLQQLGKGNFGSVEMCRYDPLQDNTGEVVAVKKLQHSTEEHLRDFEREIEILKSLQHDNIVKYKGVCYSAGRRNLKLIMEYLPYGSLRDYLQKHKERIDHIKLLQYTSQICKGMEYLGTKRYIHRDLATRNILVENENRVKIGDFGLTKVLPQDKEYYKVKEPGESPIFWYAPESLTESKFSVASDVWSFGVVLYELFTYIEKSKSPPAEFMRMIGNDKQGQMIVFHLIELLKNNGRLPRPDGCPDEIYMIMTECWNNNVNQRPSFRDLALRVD
Description: as §1, §2

Sequence of JAK1 (P23458 875-1153): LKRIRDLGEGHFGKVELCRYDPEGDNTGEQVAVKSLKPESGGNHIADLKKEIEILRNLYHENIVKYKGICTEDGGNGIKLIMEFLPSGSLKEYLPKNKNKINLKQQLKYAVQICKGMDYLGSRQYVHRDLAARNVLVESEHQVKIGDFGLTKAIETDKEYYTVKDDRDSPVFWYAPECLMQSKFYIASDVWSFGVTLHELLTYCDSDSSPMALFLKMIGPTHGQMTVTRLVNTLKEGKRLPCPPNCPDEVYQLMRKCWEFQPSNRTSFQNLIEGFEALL

SMILES	IC50 [1]	IC50 ([2]; [ATP] […])	IC50 ([2]; [ATP] 8.5 μM)
CC(C)(C)OC(=O)N1CC[C@@H](n2cc(C(N)=O)c(Nc3ccccc3)n2)[C@H](C#N)C1 (mixture of isomers) [Example 1-2, tert-butyl(3S,4S and 3R,4R)-4-[4-(aminocarbonyl)-3-anilino-1H-pyrazol-1-yl]-3-cyanopiperidine-1-carboxylate]	24 nM	496 nM	–
N#C[C@@H]1CN(C(=O)OCC(F)(F)CO)CC[C@H]1n1cc(C(N)=O)c(Nc2ccc(F)cc2)n1 (racemic) [Example 5-20, 2,2-difluoro-3-hydroxypropyl (3R,4R and 3S,4S)-4-{4-carbamoyl-3-[(4-fluorophenyl)amino]-1H-pyrazol-1-yl}-3-cyanopiperidine-1-carboxylate]	5 nM	–	106 nM
CN1CCC(COC(=O)N2CC[C@@H](n3cc(C(N)=O)c(Nc4ccc(F)cc4)n3)[C@H](C#N)C2)CC1 (racemic) [Example 5-7, (1-methylpiperidin-4-yl)methyl (3R,4R and 3S,4S)-4-{4-carbamoyl-3-[(4-fluorophenyl)amino]-1H-pyrazol-1-yl}-3-cyanopiperidine-1-carboxylate]	23 nM	–	1090 nM
N#C[C@@H]1CN(C(=O)OC(CF)CF)CC[C@H]1n1cc(C(N)=O)c(Nc2ccc(F)cc2)n1 (racemic) [Example 5-31, 2-fluoro-1-(fluoromethyl)ethyl (3R,4R and 3S,4S)-4-{4-carbamoyl-3-[(4-fluorophenyl)amino]-1H-pyrazol-1-yl}-3-cyanopiperidine-1-carboxylate]	6 nM	–	133 nM

Second part, the molecule after the results:

IC50 [1]	IC50 ([2]; [ATP] […])	IC50 ([2]; [ATP] 8.5 μM)	SMILES
529 nM	–	> 1500 nM	COCCOC(=O)N1CC[C@H](n2cc(C(N)=O)c(Nc3ccc(F)cc3)n2)[C@H](C#N)C1 (racemic) [Example 5-54, 2-methoxyethyl (3R,4S and 3S,4R)-4-{4-carbamoyl-3-[(4-fluorophenyl)amino]-1H-pyrazol-1-yl}-3-cyanopiperidine-1-carboxylate]
652 nM	–	> 1500 nM	N#C[C@@H]1CN(C(=O)OC2Cc3ccccc3C2)CC[C@@H]1n1cc(C(N)=O)c(Nc2ccc(F)cc2)n1 (racemic) [Example 5-42, 2,3-dihydro-1H-inden-2-yl (3R,4S and 3S,4R)-4-{4-carbamoyl-3-[(4-fluorophenyl)amino]-1H-pyrazol-1-yl}-3-cyanopiperidine-1-carboxylate]
2 nM	18 nM	–	C[C@@]1(C#N)CS(=O)(=O)C[C@@H]1n1cc(C(N)=O)c(Nc2ccc(F)cc2)n1 (single isomer, unassigned) [Example 14-1, 1-((3R,4R or 3S,4S)-4-Cyano-4-methyl-1,1-dioxidotetrahydrothiophen-3-yl)-3-((4-fluorophenyl)amino)-1H-pyrazole-4-carboxamide]
7 nM	–	92 nM	Cc1cc(CN2CC[C@@H](n3cc(C(N)=O)c(Nc4ccc(F)cc4)n3)[C@H](C#N)C2)no1 (racemic) [Example 6-33, 1-{(3R,4R and 3S,4S)-3-cyano-1-[(5-methylisoxazol-3-yl)methyl]piperidin-4-yl}-3-[(4-fluorophenyl)amino]-1H-pyrazole-4-carboxamide]
188 nM	–	> 1500 nM	CC(OC(=O)N1CC[C@H](n2cc(C(N)=O)c(Nc3ccc(F)cc3)n2)[C@H](C#N)C1)C(F)(F)F (mixture of isomers) [Example 5-43, 2,2,2-trifluoro-1-methylethyl (3R,4S and 3S,4R)-4-{4-carbamoyl-3-[(4-fluorophenyl)amino]-1H-pyrazol-1-yl}-3-cyanopiperidine-1-carboxylate]
69 nM	–	1200 nM	N#C[C@@H]1CN(C(=O)OCC(F)(F)CO)CC[C@@H]1n1cc(C(N)=O)c(Nc2ccc(F)cc2)n1 (racemic) [Example 5-67, 2,2-difluoro-3-hydroxypropyl (3R,4S and 3S,4R)-4-{4-carbamoyl-3-[(4-fluorophenyl)amino]-1H-pyrazol-1-yl}-3-cyanopiperidine-1-carboxylate]
